# According to patent US4396550A, “Dibenz [b,e] oxepin derivatives” (Kyowa Hakko Kogyo Co., Ltd., priority 1980, dated 1983):
# Legend:
# [1] = test system: blood platelets (platelet-rich plasma); experiment: Test for the inhibition of platelet aggregation (collagen-induced, platelet-rich plasma); assay type: cell-based, male white rabbits; details: Oryctolagus cuniculus, Platelet, 0.05 h; depressing ratio of 50% of collagen-induced aggregation; compound 3 minutes before; read-out: Antiplatelet aggregation activity: MED
# Summary of the method: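 Citrated carotid blood from male white rabbits (2–2.5 kg) spun at 1,000 rpm for 15 min to give PRP. Compound added 3 min before collagen, dosed to give 50% aggregation in the presence of 100 γ/ml aspirin; aggregation followed by aggregometer, activity scored as 50% depression versus collagen alone.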
# [2] = test system: isolated ileum of guinea-pig; experiment: Test for antihistaminergic effects on the isolated ileum of guinea-pig (histamine contraction, in vitro); design: species or system guinea-pig (male Hartly-strain); details: Cavia porcellus, 0.05 h; depressing ratio of 80% or more of histamine contraction; read-out: Antihistaminergic activity: MED
# Summary of the method: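 Ileum segments from male Hartley guinea-pigs (~250 g) suspended in Tyrode's solution at 32±1 °C, contractions recorded on kymograph. Test compound given 3 min before agonist challenge with 0.1 ml histamine at 5×10^-3 g/l.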
# Antiasthmatic activity = assay type: in vivo; details: po; read-out: Antiasthmatic activity: MED
# [3] = test system: isolated ileum of guinea-pig; experiment: Test for anticholinergic effects on the isolated ileum of guinea-pig (acetylcholine contraction, in vitro); design: species or system guinea-pig (male Hartly-strain); details: Cavia porcellus, 0.05 h; depressing ratio of 80% or more of acetylcholine contraction; compound 3 minutes before; read-out: Anticholinergic activity: MED (minimum effective dose)
# Summary of the method: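 Ileum segments from male Hartley guinea-pigs (~250 g), 2-3 cm, in Tyrode's at 32±1° C, aerated. Contraction evoked by acetylcholine (0.1 ml of 10^-3 g/ml), recorded by kymograph, before and 3 minutes after test compound addition.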
# male dd-strain rats = experiment: Acute toxicity test (minimum lethal dose); assay type: in vivo; details: mortality for 7 days
# Procedure: Groups of male dd-strain rats (each group consisting of five rats) weighing 20±1 g were used. The compounds of the present invention were administered orally (po: 0.3 mg/g) or intraperitoneally (ip: 0.1 mg/g). The MLD (minimum lethal dose) was calculated from the mortality for 7 days after the administration to obtain the results given in Table 1.
Structure (SMILES),minimal effective concentration [1],minimal effective concentration [2],minimal effective dose (Antiasthmatic activity),minimal effective concentration [3],Acute toxicity: MLD (minimum lethal dose) (male dd-strain rats; ip),Acute toxicity: MLD (minimum lethal dose) (male dd-strain rats; po)
"CCc1ccc2c(c1)C(N1CCN(CCO)CC1)c1ccccc1CO2 (stereo not drawn) [Compound 38, 2-ethyl-11-{4-(2-hydroxyethyl)-1-piperazinyl}-6,11-dihydrodibenz[b,e]oxepin]",100 µg/mL,1 µg/mL,100 mg/kg,1 µg/mL,> 100 mg/kg,> 300 mg/kg
"CCc1ccc2c(c1)C(N1CCN(C)CC1)c1ccccc1CO2 (stereo not drawn) [Compound 66, 2-ethyl-11-(4-methyl-1-piperazinyl)-6,11-dihydrodibenz[b,e]oxepin]",50 µg/mL,1 µg/mL,10 mg/kg,10 µg/mL,> 100 mg/kg,> 300 mg/kg
"Fc1ccc2c(c1)C(NC1CN3CCC1CC3)c1ccccc1CO2 (stereo not drawn) [Compound 22, 2-fluoro-11-(3-quinuclidinyl)amino-6,11-dihydrodibenz[b,e]oxepin]",100 µg/mL,0.3 µg/mL,50 mg/kg,0.3 µg/mL,100 mg/kg,300 mg/kg
"OCCN1CCN(C2c3ccccc3COc3ccc(F)cc32)CC1 (stereo not drawn) [Compound 39, 2-fluoro-11-{4-(2-hydroxyethyl)-1-piperazinyl}-6,11-dihydrodibenz[b,e]oxepin]",50 µg/mL,10 µg/mL,100 mg/kg,1 µg/mL,100 mg/kg,> 300 mg/kg
"Cc1ccc2c(c1)C(NCCN1CCCC1)c1ccccc1CO2 (stereo not drawn) [Compound 58, 2-methyl-11-{2-(1-pyrrolidinyl)ethyl}amino-6,11-dihydrodibenz[b,e]oxepin]",50 µg/mL,0.1 µg/mL,25 mg/kg,3 µg/mL,> 100 mg/kg,300 mg/kg
"CCN(CC)CCNC1c2ccccc2COc2ccc(C)cc21 (stereo not drawn) [Compound 8, 2-methyl-11-{2-(diethylamino)ethyl}amino-6,11-dihydrodibenz[b,e]oxepin]",20 µg/mL,1 µg/mL,25 mg/kg,10 µg/mL,> 100 mg/kg,200 mg/kg
"CCN(CC)CCNC1c2ccccc2COc2ccc(OC)cc21 (stereo not drawn) [Compound 13, 2-methoxy-11-{2-(diethylamino)ethyl}amino-6,11-dihydrodibenz[b,e]oxepin]",20 µg/mL,0.3 µg/mL,100 mg/kg,1 µg/mL,> 100 mg/kg,> 300 mg/kg
"CCc1ccc2c(c1)C(NC1CN3CCC1CC3)c1ccccc1CO2 (stereo not drawn) [Compound 21, 2-ethyl-11-(3-quinuclidinyl)amino-6,11-dihydrodibenz[b,e]oxepin]",50 µg/mL,0.1 µg/mL,25 mg/kg,0.1 µg/mL,100 mg/kg,300 mg/kg
"CCN(CC)CCNC1c2ccccc2COc2ccc(F)cc21 (stereo not drawn) [Compound 9, 2-fluoro-11-{2-(diethylamino)ethyl}amino-6,11-dihydrodibenz[b,e]oxepin]",50 µg/mL,1 µg/mL,50 mg/kg,3 µg/mL,100 mg/kg,> 300 mg/kg
